Measurements: US20250302973A1, “POLYMER CONJUGATES OF DRUGS WITH CENTRAL NERVOUS SYSTEM (CNS) EFFECTS AND […] BLOCKING ACTIVITY AND/OR IMMUNE SYSTEM […]” (UNIVERSITY OF PADOVA, priority 2022, published 2025)

Columns and labels:
[1] = tested on: A-549 cells; test: A-549 lung cells co-cultured 24 hours with THP-1-derived macrophages, mRNA expression of inflammatory cytokines; conditions: 1 μM; A-549 cells incubated (co-culture) with macrophages derived from THP-1 cells; effect only in presence of macrophages
[2] = tested on: C57BL6/J male mice; test: Open field test, total locomotor activity as distance travelled; format: in vivo; conditions: intraperitoneal 0.3 mg/kg MK-801 or equivalent dose, test 10 min after injection, compared with vehicle, n=7 per group
Method: The present inventors used 7 C57BL6/J male (3-4 months old) mice per treatment group, keeping them in a temperature-controlled room (22° C.) on a 12:12 h light-dark cycle (light on at 7:00 AM) and fed a standard pellet diet and tap water ad libitum. Experimental mice were habituated to the testing room by transferring them to the behavioural room 30 min prior to beginning of the test. The open field test was conducted between 9:00 am and 4:00 pm. MK-801 and derivatives were dissolved in a vehicle composed by 0.9% NaCl physiological solution. Each mouse was singly placed at the corner of a grey-painted open field arena (40×40×30 cm) 10 min after the intraperitoneal injection (Volume of injection 0.1 mL) of either Vehicle, 0.3 mg/kg MK-801, or the equivalent dose of 0.3 mg/kg MK-801 of the PEG 4 MK-801, PEG 6 MK-801, PEG 8 MK-801 or PEG 10 MK-801 derivatives. Using an automated behavioral tracking system (Videotrack, View Point Life Science), we determined the total locomotor activity measured as distance travelled by the animal during the 10 min duration of the test.

Structure (SMILES): C[C@]12N[C@H](Cc3ccccc31)c1ccccc12 [MK-801, dizocilpine]
- mRNA expression of the inflammatory cytokine CCL-2 [1]: reduces
- mRNA expression of the inflammatory cytokine IL-1β [1]: reduces
- distance travelled by the mice during 10 min in the Open Field Test [2]: significantly increased

Structure (SMILES): CCC(=O)C(C[C@H](C)N(C)C)(c1ccccc1)c1ccccc1 [esmethadone, (S)-methadone]
- mRNA expression of the inflammatory cytokine CCL-2 [1]: reduces
- mRNA expression of the inflammatory cytokine IL-1β [1]: reduces
